One compound from publication PMC10754035 (Cancer Research Communications, 2023) can be followed below.

Assay [1] concerns the target T1, KRAS G12C (Homo sapiens, UniProt P01116, G12C).
T1 construct: Human His-tagged KRAS4B (1-169) G12D, G12V and G12C were custom synthesized; 6His (pET-28a(+)-TEV vector) (N); host or cells: E. coli BL21 star (DE3)
In words: Isothermal titration calorimetry, KRAS G12C. Type of assay: binding. Conditions: ITC, KRAS G12C-NE. The protocol:
(§1) All isothermal titration calorimetry (ITC) experiments were carried out at 25°C on a MicroCal PEAQ ITC Automated (Malvern). […] The final ITC buffer in the syringe and the cell was 25 mmol/L Tris HCl (pH 8.0), 100 mmol/L NaCl, 0.1 mmol/L DTT, 5% glycerol, 1% NP40, 5 mmol/L MgCl2, and 5% DMSO. ITC titration experiments were carried out with 19 injections, 2 µL per injection, and 150 seconds spacing between each injection. Reference cell power was set to 5 µcal/second and stirring speed was 750 rpm. Data were analyzed using a one site binding model with the Malvern analysis software. All ITC experiments were performed at the biophysical facility at the Institute for Structural Biology, Drug Discovery and Development (ISB3D) at Virginia Commonwealth University (Richmond, VA) and the Massey Cancer Center.
Expression and purification of RAS proteins: Human His-tagged KRAS4B (1-169) G12D, G12V and G12C were custom synthesized and cloned into pET-28a(+)-TEV vector to generate pET-28a(+)-6His-KRAS (1-169) plasmids by GenScript USA Inc., Piscataway, NJ. The proteins were expressed and purified as described below. […]
Background: ITC needs no label: the signal is the heat of the interaction.

For assay [2], the target named is T2, KRAS G12D (Homo sapiens, UniProt P01116, G12D).
T2 construct: Human His-tagged KRAS4B (1-169) G12D, G12V and G12C were custom synthesized; 6His (pET-28a(+)-TEV vector) (N); host or cells: E. coli BL21 star (DE3)
In words: Isothermal titration calorimetry, KRAS G12D. Type of assay: binding. Conditions: ITC. As to the method: as §1
Expression and purification of RAS proteins: Human His-tagged KRAS4B (1-169) G12D, G12V and G12C were custom synthesized and cloned into pET-28a(+)-TEV vector to generate pET-28a(+)-6His-KRAS (1-169) plasmids by GenScript USA Inc., Piscataway, NJ. The proteins were expressed and purified as described below. The full length biotinylated human KRAS4B G12D (His6-MBP-tev-Avi-Hs.KRAS4b G12D (2-188) protein was obtained from Dr Dominic Esposito and Dr. William Gillette from the NCI RAS Initiative at the Frederick National Laboratory. Avi-KRAS4b (2-188) G12D was cloned, expression and purified as described previously (1,2).
Expression and purification of KRAS proteins: BL21 star (DE3) competent cells were transformed with pET-28a(+)-6His-KRAS (1-169) plasmids from GenScript, and the resulting colonies were picked under kanamycin selection. The colonies were grown in LB broth and induced with 0.5mM IPTG for 4 hours when OD reached 0.6-0.8. Bacteria pellets were lysed in 25mM Tris HCL (pH7.8) buffer containing 300mM NaCl, 5mM MgCl2, 10mM Imidazole, 5% Glycerol and 3mM β-mercaptoethanol. Membrane filter-cleared lysate supernatants were incubated with HisPur Ni-NTA resin (Thermo scientific) in an oscillating platform at 4°C for 50 minutes. Econo disposable column (Bio-Rad) was used for washing the beads 3 times with 25mM Tris HCl (pH7.8), 300mM NaCl, 5mM MgCl2, 5% Glycerol buffer with 10mM, 20mM and 30mM Imidazole, respectively. Elution was carried with 25mM Tris HCl (pH7.8), 300mM NaCl, 5mM MgCl2, 5% Glycerol and 500mM Imidazole buffer. After confirming the eluted fraction purity on SDS-PAGE gel, proteins fractions were further purified using HiLoad 16/600 superdex 75 PG column in AKTA system. Protein was eluted in 25mM Tris HCL (pH7.8), 150mM NaCl, 5mM MgCl2 and 0.5mM DTT. KRAS protein aliquots were stored in -80°C.
GCP and NH-GDP nucleotide exchange for ITC: KRAS G12D protein in 25 mM Tris HCL (pH 8.0), 1 mM Calcium Chloride Dihydrate and 200 mM (NH4)2SO4 buffer was added to alkaline phosphatase beads (Sigma, USA) (2U per mg of KRAS) and to non-hydrolysable nucleotide analogs, GCP (β,γ-Methyleneguanosine 5′-triphosphate sodium salt, Sigma, USA) or GDP-NH (Guanosine 5′-[β-thio]diphosphate trilithium salt, Sigma, USA) in molar ratio of 10:1 (Nucleotide:KRAS). The reaction mixture was incubated with gentle rotation for 14-18 hrs at 4 °C. After incubation, the mixture was centrifuged at 1500 g, 4°C to remove the alkaline phosphatase beads. MgCl2 (20 mM) and an additional amount of GCP or NH-GDP in molar ratio of 5:1 (Nucleotide:KRAS) were added, and incubated at room temperature for 1 hr. After incubation, nucleotide exchanged protein was desalted and buffer exchanged at 4 °C using PD-10 column (Catalog # 17085101, GE Healthcare, USA), into a final buffer containing 25 mM Tris HCL (pH 7.5), 150 mM NaCl, 5 mM MgCl2 and 0.5 mM DTT. Buffer exchanged protein was concentrated using Amicon ultra centrifugal filter-10K cut off (Catalog # UFC501024, MilliporeSigma, USA). The protein concentration was measured using Pierce Rapid GOLD BCA Protein Assay Kit (Thermo Scientific, USA) and aliquots were stored in -80°C.

For assay [3], the system named is pancreatic cancer cell lines harboring KRAS G12D, KRAS G12V, KRAS WT, and KRAS G12C. As to the kind of experiment: Cell viability, pancreatic cancer cell lines (summary). The assay is classed as cell-based. The following applies: Homo sapiens, read-out: IC50 values, cell viability, range over cell lines. As to the method:
Cell viability assays were carried out using the CellTiter-Glo Luminescent Cell Viability Assay (Promega). […] All the experiments were performed in triplicate and each condition was performed in replicates of 3–6 wells.

A word on the Kd: it is a measure of binding affinity in units of concentration. The IC50 is the point on the concentration scale where inhibition reaches its midpoint.

T2 sequence (P01116 1-169 isoform P01116-2 G12D): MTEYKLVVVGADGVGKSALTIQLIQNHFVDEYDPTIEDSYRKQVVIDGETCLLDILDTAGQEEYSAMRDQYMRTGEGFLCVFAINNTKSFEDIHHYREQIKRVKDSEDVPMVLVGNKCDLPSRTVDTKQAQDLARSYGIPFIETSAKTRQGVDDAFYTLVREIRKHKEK
T1 sequence (P01116 1-169 isoform P01116-2 G12C): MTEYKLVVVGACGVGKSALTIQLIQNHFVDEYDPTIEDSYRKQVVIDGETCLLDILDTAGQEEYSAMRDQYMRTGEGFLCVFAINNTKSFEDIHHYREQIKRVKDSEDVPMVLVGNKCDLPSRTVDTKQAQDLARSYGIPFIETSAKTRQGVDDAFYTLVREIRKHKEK

For the compound `COC(=O)C1C2C3(C)C(=O)C=CC2(OC3=O)C2CCC3(CBr)CC12CC3=O` (centres unmarked) [KRB-456], the dissociation constant (Kd) is 1410 nM in assay [1]; 247 nM in assay [2] (KRAS G12D-NE (non-exchanged), 25°C); 479 nM in assay [2] (NH-GDP-loaded KRAS G12D); 341 nM in assay [2] (NH-GTP-loaded KRAS G12D). The IC50 in assay [3] fell in the range of 5000 to 15000 nM.
